According to patent US20080070987A1, “META-XYLYLENEDIAMINE VANADATE SALTS” (priority 2006, published 2008):

What follows are compounds tested against T1, Human SSAO/VAP-1 (Homo sapiens, UniProt Q16853) (assay: Fluorimetric detection of SSAO-mediated H2O2 formation (Amplex Red), human recombinant VAP-1). Details: production of hydrogen peroxide; compounds at 1 mM.
T1 sequence (Q16853 1-763): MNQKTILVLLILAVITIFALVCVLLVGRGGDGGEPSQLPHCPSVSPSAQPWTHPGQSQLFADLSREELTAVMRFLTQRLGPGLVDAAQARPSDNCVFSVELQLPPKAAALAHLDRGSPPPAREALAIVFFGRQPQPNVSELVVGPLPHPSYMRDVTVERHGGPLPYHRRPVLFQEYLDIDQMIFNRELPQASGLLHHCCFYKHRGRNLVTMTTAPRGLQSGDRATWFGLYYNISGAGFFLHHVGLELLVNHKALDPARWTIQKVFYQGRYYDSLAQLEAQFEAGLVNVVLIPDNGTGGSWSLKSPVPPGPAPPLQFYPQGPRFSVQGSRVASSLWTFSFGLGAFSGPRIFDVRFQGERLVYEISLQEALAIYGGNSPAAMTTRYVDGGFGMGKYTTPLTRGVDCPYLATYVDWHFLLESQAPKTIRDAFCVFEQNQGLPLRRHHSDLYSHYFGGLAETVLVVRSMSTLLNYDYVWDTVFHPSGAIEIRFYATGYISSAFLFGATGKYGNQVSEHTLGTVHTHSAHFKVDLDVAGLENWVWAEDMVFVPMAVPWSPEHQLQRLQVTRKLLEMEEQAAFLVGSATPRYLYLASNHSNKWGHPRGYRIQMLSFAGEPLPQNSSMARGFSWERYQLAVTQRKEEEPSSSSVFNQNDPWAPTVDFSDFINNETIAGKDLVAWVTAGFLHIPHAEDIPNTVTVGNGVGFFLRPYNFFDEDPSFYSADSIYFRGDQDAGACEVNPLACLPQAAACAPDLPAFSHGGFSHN
Type: biochemical
Procedure: (§1) The SSAO activity of human recombinant VAP-1 (0.1 μg prot/assay) and mouse adipose tissue membranes (1 μg prot/assay) was measured using Amplex Red Reagent, a highly sensitive and stable probe for H2O2. The reaction was performed in 200 μL of 0.2 mol/l phosphate buffer at pH 7.4 for 50 min at 37° C. in black non-phosphorescent microplates (Nunc). Catalytic reaction was initiated by the addition of the amines indicated as putative SSAO substrates and H2O2-detecting mixture containing horseradish peroxidase and Amplex Red, as previously described. Fluorescence intensity was measured (excitation, 545 nm, 590 nm, Bio-Tek fluorescence plate reader) and H2O2 concentration was calculated form calibration curves generated by serial dilutions of standard H2O2. Fluorescence readings were performed every 5 min. […] To test amines as putative SSAO inhibitors, they were pre-incubated for 20 min with semicarbazide, and their percentage of inhibition was calculated by referring to SSAO activity produced by benzylamine. The kinetic parameters Km and Vmax were calculated using appropriate non-linear curve-fitting formula based on the Michaelis-Menten equation and using GraphPad Prism 4.0 software.

| Compound | Human SSAO/VAP-1 activity % relative to benzylamine [%] |
| --- | --- |
| NCc1ccccc1 [Example 1, benzylamine, reference compound] | 100 |
| CC(=O)NCc1cccc(CN)c1 [Example 2, N-(3-(aminomethyl)benzyl)acetamide] | 3 ± 1 |
| CCC(=O)NCc1cccc(CN)c1 [Example 3, N-(3-(aminomethyl)benzyl)propionamide] | 4 ± 1 |
| NCc1cccc(CNC(=O)CI)c1 [Example 4, N-(3-(aminomethyl)benzyl)-2-iodoacetamide] | 38 ± 3 |
| C=CCOC(=O)NCc1cccc(CN)c1 [Example 5, allyl 3-(aminomethyl)benzylcarbamate] | 21 ± 1 |
| NCc1cccc(CNC(=O)c2ccccc2)c1 [Example 6, N-(3-(aminomethyl)benzyl)benzamide] | 17 ± 1 |
| CC(=O)N[C@H](C(=O)NCc1cccc(CN)c1)c1ccccc1 [Example 7, (S)-2-acetamido-N-(3-(aminomethyl)benzyl)-2-phenylacetamide] | 2 ± 1 |
| Cc1ccc(S(=O)(=O)NCc2cccc(CN)c2)cc1 [Example 8, N-(3-(aminomethyl)benzyl)-4-methylbenzenesulfonamide] | 12 ± 2 |
| NCc1cccc(CNC(=O)c2ccc(O)cc2)c1 [Example 10, N-(3-(aminomethyl)benzyl)-4-hydroxybenzamide] | 5 ± 1 |
| NCc1ccc(C(=O)NCc2cccc(CN)c2)cc1 [Example 11, 4-(aminomethyl)-N-(3-(aminomethyl)benzyl)benzamide] | 17 ± 2 |
| NCc1cccc(CNC(=O)c2ccc(Br)cc2)c1 [Example 12, N-(3-(aminomethyl)benzyl)-4-bromobenzamide] | 16 ± 2 |

What follows are compounds tested against T2, Mouse SSAO/VAP-1 (Mus musculus, UniProt O70423) (assay: Fluorimetric detection of SSAO-mediated H2O2 formation (Amplex Red), mouse adipose tissue membranes). Details: production of hydrogen peroxide; compounds at 100 μM.
T2 construct: from tissue; host or cells: internal adipose tissue membranes of Swiss mice
T2 sequence (O70423 1-765): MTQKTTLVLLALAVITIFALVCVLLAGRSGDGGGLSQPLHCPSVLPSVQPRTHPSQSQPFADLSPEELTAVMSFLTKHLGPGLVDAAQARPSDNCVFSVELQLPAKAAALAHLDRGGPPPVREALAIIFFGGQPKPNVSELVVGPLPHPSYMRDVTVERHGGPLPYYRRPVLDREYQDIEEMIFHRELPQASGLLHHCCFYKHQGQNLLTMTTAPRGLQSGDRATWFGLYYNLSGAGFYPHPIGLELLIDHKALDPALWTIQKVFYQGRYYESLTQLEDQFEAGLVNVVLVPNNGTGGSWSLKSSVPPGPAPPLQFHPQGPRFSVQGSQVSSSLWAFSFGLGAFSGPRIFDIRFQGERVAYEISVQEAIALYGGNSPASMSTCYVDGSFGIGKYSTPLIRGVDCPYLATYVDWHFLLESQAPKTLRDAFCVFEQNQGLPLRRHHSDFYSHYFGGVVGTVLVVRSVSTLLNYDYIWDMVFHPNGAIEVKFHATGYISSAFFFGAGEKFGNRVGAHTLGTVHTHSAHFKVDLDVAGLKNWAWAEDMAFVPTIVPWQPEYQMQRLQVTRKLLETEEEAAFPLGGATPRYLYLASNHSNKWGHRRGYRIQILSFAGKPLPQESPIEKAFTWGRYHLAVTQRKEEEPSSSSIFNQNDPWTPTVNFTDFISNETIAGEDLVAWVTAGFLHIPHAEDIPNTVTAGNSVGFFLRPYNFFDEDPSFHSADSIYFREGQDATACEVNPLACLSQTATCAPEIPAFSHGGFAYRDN
Type: biochemical
Procedure: Internal adipose tissue was obtained from Swiss mice weighing between 20 to […]. […] The lysates were then centrifuged at 5000 g at 4° C. for 15 min to eliminate the fat cake and non-homogenized material, and supernatants were collected and centrifuged at 200000 g for 2 h at 4° C. Pelleted membranes were resuspended in 30 mmol/l HEPES and stored at −80° C. until use. Protein concentrations were measured by the Bradford method with γ-globulin as standard.
as §1

| Compound | Mouse SSAO/VAP-1 activity % relative to benzylamine [%] |
| --- | --- |
| NCc1ccccc1 [Example 1, benzylamine, reference compound] | 100 |
| CC(=O)NCc1cccc(CN)c1 [Example 2, N-(3-(aminomethyl)benzyl)acetamide] | 16 ± 4 |
| CCC(=O)NCc1cccc(CN)c1 [Example 3, N-(3-(aminomethyl)benzyl)propionamide] | 27 ± 1 |
| NCc1cccc(CNC(=O)CI)c1 [Example 4, N-(3-(aminomethyl)benzyl)-2-iodoacetamide] | 61 ± 5 |
| C=CCOC(=O)NCc1cccc(CN)c1 [Example 5, allyl 3-(aminomethyl)benzylcarbamate] | 49 ± 3 |
| NCc1cccc(CNC(=O)c2ccccc2)c1 [Example 6, N-(3-(aminomethyl)benzyl)benzamide] | 58 ± 4 |
| CC(=O)N[C@H](C(=O)NCc1cccc(CN)c1)c1ccccc1 [Example 7, (S)-2-acetamido-N-(3-(aminomethyl)benzyl)-2-phenylacetamide] | 13 ± 3 |
| Cc1ccc(S(=O)(=O)NCc2cccc(CN)c2)cc1 [Example 8, N-(3-(aminomethyl)benzyl)-4-methylbenzenesulfonamide] | 14 ± 3 |
| NCc1cccc(CNC(=O)c2ccc(O)cc2)c1 [Example 10, N-(3-(aminomethyl)benzyl)-4-hydroxybenzamide] | 26 ± 1 |
| NCc1ccc(C(=O)NCc2cccc(CN)c2)cc1 [Example 11, 4-(aminomethyl)-N-(3-(aminomethyl)benzyl)benzamide] | 12 ± 1 |
| NCc1cccc(CNC(=O)c2ccc(Br)cc2)c1 [Example 12, N-(3-(aminomethyl)benzyl)-4-bromobenzamide] | 46 ± 1 |

These compounds were tested on isolated rat adipocytes (assay: Glucose (2-deoxyglucose) transport in isolated rat adipocytes). Details: 1 mM semicarbazide.
Type: cell-based, Wistar rats
Procedure: FIG. 1 is a graphical illustration of the hexaquis(benzylammonium) decavanadate effects on glucose transport in isolated rat adipocytes. In this Figure, V corresponds to the rate of 2-deoxyglucose transport (expressed relative to the basal rate), and the results are mean +standard error of the mean (SEM). The adipocytes were incubated in the absence of stimulants in the following conditions: basal (1); in the presence of 100 nM insulin (2); in the presence of hexaquis(benzylammonium) decavanadate at concentrations of 0.5 μM (3), 1 μM (4), 2.5 μM (5), 5 μM (6), 10 μM (7), 25 μM (8), 50 μM (9), and 100 μM (10). The cells were also incubated in the presence of the semicarbazide inhibitor (1 mM), and 10 μM hexaquis(benzylammonium) decavanadate (11), 25 μM of hexaquis(benzylammonium) decavanadate (12) or 50 μM hexaquis(benzylammonium) decavanadate (13). In parallel, the cells were incubated in presence of 100 μM of sodium vanadate and 100 μM of benzylamine, in the absence (14) or in the presence of 1 mM of semicarbazide (15).
FIG. 2 is a graphical illustration of the effects of hexaquis(benzylammonium) decavanadate, pentaquis(benzylammonium) decavanadate and tetraquis(benzylammonium) decavanadate on glucose transport in isolated rat adipocytes. V corresponds to the rate of 2-deoxyglucose uptake (expressed as relation with basal group), and the results are mean +standard error mean. The adipocytes were incubated in the absence of stimulants in the following conditions: basal (1); in the presence of 100 nM of insulin (2); in the presence of hexaquis(benzylammonium) decavanadate at concentrations of 10 μM (3) and 25 μM (4), pentaquis(benzylammonium) decavanadate at concentrations of 10 μM (8) and 25 μM (9), and tetraquis(benzylammonium) decavanadate at concentrations of 10 μM (11) and 25 μM (12). The cells were also incubated in the presence of the semicarbazide inhibitor (1 mM) and, 25 μM of hexaquis(benzylammonium) decavanadate (5), 25 μM of pentaquis(benzylammonium) decavanadate (10) or 25 μM of tetraquis(benzylammonium) decavanadate (13). In parallel, the cells were incubated in the presence of 100 μM of sodium vanadate (6) or in the presence of 250 μM of sodium vanadate (7).
Adipose cells from Wistar rats were incubated for 45 minutes in basal conditions (Basal) or in the presence of 100 nM insulin (Ins) and different concentrations of. hexaquis(benzylammonium) decavanadate (B6V10) in the absence or in the presence of 1 mM semicarbazide (SCZ). Subsequently, 2-DG transport was measured over a 5 min. interval.
The effects of the three tested compounds (B6V10, B5V10 and B4V10) were compared. Adipose cells from Wistar rats were incubated for 45 minutes in basal conditions (Basal) or in the presence of 100 nM insulin (Ins), and different concentrations of decavanadate (V10), hexaquis(benzylammonium) decavanadate (B6V10), pentaquis(benzylammonium) decavanadate (B5V10) or tetraquis(benzylammonium) decavanadate (B4V10) in the absence or in the presence of 1 mM semicarbazide (SCZ). 2-DG transport was measured over 5 min. intervals.
In additional experiments, compounds shown in FIG. 6A, 2-(4-fluoro-phenyl)ethylamine (compound A), 3-phenylpropylamine (compound B), 4-fluoro-benzylamine (compound C) and 4-phenylbutylamine (compound D) were assessed using the experimental methods set forth above for the capacity to stimulate 2-DG uptake in isolated rat adipocytes. Adipose cells from Wistar rats were incubated for 45 minutes in basal conditions (Basal) or in the presence of 100 nM insulin (Ins), and different concentrations of vanadium salts of 2-(4-fluoro-phenyl)-ethylamine (compound A), 3-phenyl-propylamine (compound B), 4-fluoro-benzylamine (compound C) and 4-phenyl-butylamine (compound D). 2-DG transport was measured over 5 min.
The effects of incubation with semicarbazide or phosphatidylinositol 3-kinase inhibitors were also investigated. […]

| Compound | effect of semicarbazide on the stimulation of glucose transport |
| --- | --- |
| pentaquis(benzylammonium) decavanadate [Example B5V10] | blocked in the presence of semicarbazide |
| tetraquis(benzylammonium) decavanadate [Example B4V10] | blocked in the presence of semicarbazide |

Same assay, conditions: 1 mM semicarbazide, listed as pentaquis(benzylammonium) decavanadate

| Compound | effect of semicarbazide on the stimulation of glucose transport |
| --- | --- |
| pentaquis(benzylammonium) decavanadate [Example B5V10] | this effect was inhibited |

Same assay, conditions: 1 mM semicarbazide, listed as tetraquis(benzylammonium) decavanadate

| Compound | effect of semicarbazide on the stimulation of glucose transport |
| --- | --- |
| tetraquis(benzylammonium) decavanadate [Example B4V10] | this effect was inhibited |

Same assay, conditions: 45 min incubation

| Compound | stimulation of glucose transport (2-DG uptake), in words |
| --- | --- |
| NCCc1ccc(F)cc1 [compound A, 2-(4-fluoro-phenyl)ethylamine] | markedly stimulated glucose transport |
| NCCCc1ccccc1 [compound B, 3-phenylpropylamine] | markedly stimulated glucose transport |
| NCc1ccc(F)cc1 [compound C, 4-fluoro-benzylamine] | markedly stimulated glucose transport |
| NCCCCc1ccccc1 [compound D, 4-phenylbutylamine] | markedly stimulated glucose transport |
| pentaquis(benzylammonium) decavanadate [Example B5V10] | pronounced stimulation on glucose transport |
| tetraquis(benzylammonium) decavanadate [Example B4V10] | pronounced stimulation on glucose transport |
